In the supplement of paper PMC10307832:

Experiments:
Test in all cases: relative viability (nuclei count vs DMSO), 5 days (fraction); higher = more cells survive
[1] = compound: CS(=O)(=O)c1ccc(C(=O)Nc2ccc(Cl)c(-c3ccccn3)c2)c(Cl)c1 [Vismodegib] + C[C@@H](Oc1cc(-c2cnn(C3CCNCC3)c2)cnc1N)c1c(Cl)ccc(F)c1Cl [Crizotinib] (partner 1 µM)
Summary of the method: (§1)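 Lung cancer cell lines, seeded in 1536-well plates, were treated the following day by pin tool with a single drug or with five library-drug doses (not always all listed) in √10 steps on top of a fixed anchor-drug dose. Cells were fixed and nuclei stained in one step after 5 days, and nuclei were counted. Relative viability is the nuclei count for treated wells divided by that for vehicle wells, reported as medians of duplicate plates.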

[2] = compound: N#CC[C@H](C1CCCC1)n1cc(-c2ncnc3[nH]ccc23)cn1 [Ruxolitinib] + Nc1nc2[nH]cc(CCc3ccc(C(=O)N[C@@H](CCC(=O)O)C(=O)O)cc3)c2c(=O)[nH]1 [Pemetrexed] (partner 0.2 µM)
Summary of the method: as §1

[3] = compound: N#CC[C@H](C1CCCC1)n1cc(-c2ncnc3[nH]ccc23)cn1 [Ruxolitinib] + C[C@@H](Oc1cc(-c2cnn(C3CCNCC3)c2)cnc1N)c1c(Cl)ccc(F)c1Cl [Crizotinib] (partner 1 µM)
Summary of the method: as §1

[4] = compound: N#CC[C@H](C1CCCC1)n1cc(-c2ncnc3[nH]ccc23)cn1 [Ruxolitinib] + CCNC(=O)c1noc(-c2cc(C(C)C)c(O)cc2O)c1-c1ccc(CN2CCOCC2)cc1 [Luminespib] (partner 0.01 µM)
Summary of the method: as §1

| Cell Line | relative viability ([1]; first compound 0.08 µM) | relative viability ([1]; first compound 0.253 µM) | relative viability ([1]; first compound 0.8 µM) | relative viability ([1]; first compound 2.53 µM) | relative viability ([1]; first compound 8 µM) | relative viability ([2]; first compound 0.08 µM) | relative viability ([2]; first compound 0.253 µM) | relative viability ([2]; first compound 0.8 µM) | relative viability ([2]; first compound 2.53 µM) | relative viability ([2]; first compound 8 µM) | relative viability ([3]; first compound 0.08 µM) | relative viability ([3]; first compound 0.253 µM) | relative viability ([3]; first compound 0.8 µM) | relative viability ([3]; first compound 2.53 µM) | relative viability ([3]; first compound 8 µM) | relative viability ([4]; first compound 0.08 µM) | relative viability ([4]; first compound 0.253 µM) | relative viability ([4]; first compound 0.8 µM) | relative viability ([4]; first compound 2.53 µM) | relative viability ([4]; first compound 8 µM) |
| --- | --- | --- | --- | --- | --- | --- | --- | --- | --- | --- | --- | --- | --- | --- | --- | --- | --- | --- | --- | --- |
| NCI-H2023 | 0.586 | 0.56 | 0.707 | 0.615 | 0.685 | 0.264 | 0.271 | 0.23 | 0.233 | 0.23 | 0.533 | 0.574 | 0.746 | 0.704 | 0.719 | 0.73 | 0.74 | 0.674 | 0.438 | 0.568 |
| NCI-H2085 | 0.867 | 0.873 | 0.854 | 0.826 | 0.83 | 0.918 | 0.825 | 1.09 | 0.783 | 0.653 | 0.844 | 0.921 | 0.857 | 0.784 | 0.711 | 0.418 | 0.48 | 0.486 | 0.403 | 0.352 |
| NCI-H2087 | 0.834 | 0.906 | 0.713 | 0.797 | 0.908 | 0.685 |  | 0.726 | 0.703 | 0.652 | 0.928 | 1.07 | 1 | 0.919 | 0.615 | 0.158 | 0.15 | 0.172 | 0.233 | 0.17 |
| NCI-H2126 | 1.11 | 0.96 | 1.08 | 0.991 | 1.04 | 0.757 | 0.736 | 0.789 | 0.721 | 0.663 | 0.996 | 1.11 | 1.02 | 1.03 | 0.984 | 0.879 | 0.922 | 1.13 | 0.933 | 0.784 |
| NCI-H2170 | 1.23 | 1.08 | 1.19 | 1.17 | 1.31 | 0.256 | 0.262 | 0.259 | 0.266 | 0.276 | 1.14 | 1.23 | 1.19 | 1.05 | 1.1 | 0.687 | 0.509 | 0.954 | 0.643 | 0.817 |
| NCI-H2228 | 0.563 | 0.412 | 0.426 | 0.547 | 0.419 | 0.332 | 0.342 | 0.318 | 0.324 | 0.321 | 0.63 | 0.36 | 0.531 | 0.492 | 0.403 | 0.131 | 0.146 | 0.118 | 0.144 | 0.148 |
| NCI-H2347 | 0.691 | 0.713 | 0.64 | 0.582 | 0.656 | 0.459 | 0.407 | 0.451 | 0.406 | 0.434 | 0.665 | 0.586 | 0.764 | 0.67 | 0.651 | 0.519 | 0.456 | 0.41 | 0.302 | 0.676 |
| NCI-H2405 | 0.851 | 0.86 | 0.807 | 0.784 | 0.83 | 1.07 | 1.11 | 1.13 | 0.895 | 0.592 | 0.853 | 0.87 | 0.984 | 0.761 | 0.596 |  | 0.654 | 0.838 | 0.481 | 0.476 |
